ChEMBL document CHEMBL5331079, “Novel thiazolidines of potential anti-proliferation properties against esophageal squamous cell carcinoma via ERK pathway” (Eur J Med Chem, 2023)
The source made the active and inactive calls. No cut-off for these calls is given here.

Legend:
KYSE-30 [1] = assay: Antiproliferative activity against human KYSE-30 cells assessed as inhibition of cell growth incubated for 72 hrs by MTT assay; format: functional, cell-based; settings: KYSE-30, 72 h
MCF7 = assay: Antiproliferative activity against human MCF7 cells assessed as inhibition of cell growth incubated for 96 hrs by MTT assay; format: functional, cell-based; settings: MCF7, 96 h
KYSE-150 cell line [2] = assay: Inhibition of cell growth in human KYSE-150 cell line at 10 uM incubated for 72 hrs by MTT assay relative to control; format: functional
KYSE-150 cell line [3] = assay: Antiproliferative activity against human KYSE-150 cell line assessed as inhibition of cell growth incubated for 72 hrs by MTT assay; format: functional, cell-based; settings: KYSE-150, 72 h
[4] = Antiproliferative activity against human HET-1A cells assessed as inhibition of cell growth incubated for 72 hrs by MTT assay; format: toxicity, cell-based
[5] = Antiproliferative activity against human NES-G4T cells assessed as inhibition of cell growth incubated for 72 hrs by MTT assay; format: toxicity, cell-based
KYSE-30 [6] = assay: Antiproliferative activity against human KYSE-30 cells assessed as reduction of cell viability at 1.25 to 100 uM incubated for 72 hrs by MTT assay; format: functional, cell-based; settings: dose 1.25-100 µM
KYSE-150 cell line [7] = assay: Antiproliferative activity against human KYSE-150 cell line assessed as reduction of cell viability at 1.25 to 100 uM incubated for 72 hrs by MTT assay; format: functional, cell-based; settings: dose 1.25-100 µM
HET-1A = assay: Antiproliferative activity against human HET-1A cells assessed as reduction of cell viability at 1.25 to 100 uM incubated for 72 hrs by MTT assay; format: toxicity, cell-based; settings: dose 1.25-100 µM
[8] = Antiproliferative activity against human NES-G4T cells assessed as reduction of cell viability at 1.25 to 100 uM incubated for 72 hrs by MTT assay; format: toxicity, cell-based; settings: dose 1.25-100 µM
KYSE-30 [9] = assay: Induction of apoptosis in human KYSE-30 cells assessed as chromatin condensation at 10 uM incubated upto 72 hrs by DAPI staining based confocal laser scanner microscopy analysis; format: functional, cell-based
KYSE-30 [10] = assay: Induction of apoptosis in human KYSE-30 cells assessed as nuclear fragmentation at 10 uM incubated upto 72 hrs by DAPI staining based confocal laser scanner microscopy analysis; format: functional, cell-based
KYSE-30 [11] = assay: Induction of apoptosis in human KYSE-30 cells assessed as loss of nuclei integrity at 10 uM incubated for 72 hrs by DAPI staining based confocal laser scanner microscopy analysis; format: functional, cell-based
KYSE-150 cell line [12] = assay: Induction of apoptosis in human KYSE-150 cell line assessed as chromatin condensation at 10 uM incubated upto 72 hrs by DAPI staining based confocal laser scanner microscopy analysis; format: functional
KYSE-150 cell line [13] = assay: Induction of apoptosis in human KYSE-150 cell line assessed as nuclear fragmentation at 10 uM incubated upto 72 hrs by DAPI staining based confocal laser scanner microscopy analysis; format: functional
KYSE-150 cell line [14] = assay: Induction of apoptosis in human […] cell line assessed as loss of nuclei integrity at 10 uM incubated for 72 hrs by DAPI staining based confocal laser scanner microscopy analysis; format: functional
KYSE-150 cell line [15] = assay: Induction of apoptosis in human KYSE-150 cell line assessed as downregulation of ERK protein level incubated for 4 to 12 hrs by Western blotting analysis; format: functional, cell-based; settings: time 4-12 hrs, TDE = time-dependent effect
KYSE-150 cell line [16] = assay: Induction of apoptosis in human KYSE-150 cell line assessed as effect on ratio of ERK phosphorylation incubated for 4 to 12 hrs by Western blotting analysis; format: functional, cell-based; settings: time 4-12 hrs
KYSE-150 cell line [17] = assay: Induction of apoptosis in human KYSE-150 cell line assessed as effect on ratio of AKT phosphorylation incubated for 4 to 12 hrs by Western blotting analysis; format: functional, cell-based; settings: time 4-12 hrs
NES-G4T [18] = assay: Induction of apoptosis in human NES-G4T cells assessed as effect on ratio of ERK phosphorylation incubated for 4 to 12 hrs by Western blotting analysis; format: functional, cell-based; settings: time 4-12 hrs
NES-G4T [19] = assay: Induction of apoptosis in human NES-G4T cells assessed as effect on ratio of AKT phosphorylation incubated for 4 to 12 hrs by Western blotting analysis; format: functional, cell-based; settings: time 4-12 hrs

SMILES: Cc1ccc(/N=C2/NC(C)(C)/C(=C/c3ccc(Br)cc3)S2)cc1
- IC50 (KYSE-30 [1]): 64.3 µM

SMILES: CC1(C)N/C(=N/c2ccccc2)S/C1=C\c1ccc(Br)cc1
- IC50 (KYSE-30 [1]): 18.6 µM

SMILES: CC1(C)N/C(=N/c2ccc([N+](=O)[O-])cc2)S/C1=C\c1ccc(Br)cc1
- IC50 (KYSE-30 [1]): 31.5 µM

SMILES: CNC(C)C#Cc1ccc(OC)cc1 (stereo not given)
- IC50 (MCF7): 0.5 µM

SMILES: CC1(C)N/C(=N/c2ccc(Br)cc2)S/C1=C\c1ccc(Br)cc1
- IC50 (KYSE-30 [1]): 13.2 µM

SMILES: COc1ccc(/N=C2/NC(C)(C)/C(=C/c3ccc(Br)cc3)S2)c([N+](=O)[O-])c1
- IC50 (KYSE-30 [1]): 16.8 µM
- inhibition at 10 µM (KYSE-150 cell line [2]): 71%
- IC50 (KYSE-150 cell line [3]): 10.1 µM
- IC50 at 72 h [4]: 13 µM
- IC50 at 72 h [5]: 202 µM
- Activity (KYSE-30 [6]): Dose-Dependent Effect
- Activity (KYSE-150 cell line [7]): Dose-Dependent Effect
- Activity (HET-1A): Toxic
- Activity [8]: Toxic
- Activity (KYSE-30 [9]): Active
- Activity (KYSE-30 [10]): Active
- Activity (KYSE-30 [11]): Active
- Activity (KYSE-150 cell line [12]): Active
- Activity (KYSE-150 cell line [13]): Active
- Activity (KYSE-150 cell line [14]): Active
- Activity (KYSE-150 cell line [15]): Tde
- Activity (KYSE-150 cell line [16]): inactive
- Activity (KYSE-150 cell line [17]): inactive
- Activity (NES-G4T [18]): inactive
- Activity (NES-G4T [19]): inactive

SMILES: COc1ccc(/C=C2\S/C(=N\c3ccccc3)N(C)C2C)cc1 (stereo not given)
- IC50 (MCF7): 0.5 µM

SMILES: CC1(C)N/C(=N/c2ccc(Cl)cc2)S/C1=C\c1ccc(Br)cc1
- IC50 (KYSE-30 [1]): 64.2 µM

SMILES: Cc1ccc(/N=C2/NC(C)(C)/C(=C/c3ccc(Br)cc3)S2)cc1Cl
- IC50 (KYSE-30 [1]): 65.4 µM

SMILES: CC1(C)N/C(=N/c2ccc(F)cc2)S/C1=C\c1ccc(Br)cc1
- IC50 (KYSE-30 [1]): 10.6 µM

SMILES: COc1ccc(/N=C2/NC(C)(C)/C(=C/c3ccc(Br)cc3)S2)cc1
- IC50 (KYSE-30 [1]): 14.2 µM
